Test results: publication PMC10222323, “Novel Biotinylated Cu(II)-Phenanthroline Complexes: 2D and 3D Cytotoxic Activity and Mechanistic Insight” (Molecules, 2023)

Tests used:
[1] = tested on: A431 (cervical) cancer cells; assay: MTT cytotoxicity test, 72 h, A431; format: cell-based, human; conditions: mean ± S.D.
Method: (§1) The in vitro anticancer potential of the newly developed complexes and of the ligands has been tested on six different cancer cell lines including PSN-1 (pancreatic), HCT-15 (colorectal with low sensitivity for cisplatin), 2008 (ovarian), A431 (cervical), MDA-MB-231 (breast), and U1285 (lung) cancer cells. For comparison purposes, cisplatin efficacy was assessed under the same experimental conditions.
(§2) Tested compounds were dissolved in DMSO and added to the cell-growth medium to a final solvent concentration of 0.5%, which is well reported to not have cytotoxic effects on cell viability. Cisplatin (Sigma Chemical Co., St. Louis, MO, USA) was dissolved in a physiologic solution (0.9% sodium chloride).
(§3) Human colon (HCT-15), pancreatic (PSN-1), and breast (MDA-MB-231) carcinoma-cell lines were obtained from the American Type Culture Collection (ATCC, Rockville, MD). Human cervical carcinoma (A431) cells were kindly provided by Prof. F. Zunino (Division of Experimental Oncology B, Istituto Nazionale dei Tumori, Milan). Human ovarian carcinoma (2008) cells and their cisplatin-resistant counterpart (C13*) were kindly provided by Prof. G. Marverti (Dipartimento di Scienze Biomediche, Università di Modena University, Italy). Cell lines were cultured in RPMI-1640 or DMEM medium (Euroclone) added with 10% fetal calf serum (Euroclone, Milan, Italy), antibiotics (50 units per mL penicillin, and 50 μg mL^−1 streptomycin), and 2 mM L-glutamine.
(§4) The growth inhibitory effect toward the tumour cell lines was evaluated by the MTT test as previously described.

[2] = tested on: MDA-MB-231 (breast) cancer cells; assay: MTT cytotoxicity test, 72 h, MDA-MB-231; format: cell-based, human; conditions: mean ± S.D.
Method: as §1, §2, §3, §4

[3] = tested on: U1285 (lung) cancer cells; assay: MTT cytotoxicity test, 72 h, U1285; format: cell-based, human; conditions: mean ± S.D., read-out: IC50 U-1285
Method: as §1, §2, §4

[4] = tested on: C13* ovarian cancer cells (cisplatin-resistant); assay: MTT cytotoxicity test, 72 h, cisplatin-resistant C13*; format: cell-based, human; conditions: for R.F. (resistance factor): RF = IC50 resistant (C13*)/IC50 parental cells (2008); for IC50: cisplatin-resistant cells, 72 h, MTT test
Method: Table 2 reported the IC50 values of the complexes against two types of ovarian cancer cells, one sensitive (2008) and one resistant to cisplatin (C13*). […] The resistance factor (R.F., the ratio among IC50 values obtained in resistant C13*cells and those calculated in the sensitive 2008 ones) calculated for all tested complexes resulted to be ≤2 (R.F. for cisplatin 11.1), strongly confirming the ability of the complexes to bypass cisplatin resistance.
as §2, §3, §4

[5] = tested on: human pancreatic PSN-1 cancer-cell spheroids; assay: 3D spheroid cytotoxicity, APH assay, 72 h; format: cell-based; conditions: for IC50: 3D spheroids, 72 h, APH test; for times more effective than cisplatin in 3D spheroids: PSN-1 3D spheroids, relative to cisplatin
Method: The cancer spheroids were treated with tested complexes for 72 h, and the cell viability was estimated by means of a modified acid phosphatase (APH) assay.
Spheroid cultures were performed by seeding 2.5 × 10^3 PSN-1 cancer cells/well in spheroid-suitable tissue culture untreated 96-well plates (Greiner Bio-one, Kremsmünster, Austria) in RPMI-1640 cell culture medium without phenol red (Sigma Chemical Co., St. Louis, MO, USA) containing 10% fetal calf serum and supplemented with 20% methyl cellulose stock solution.
An established APH-modified assay was used to detect the cytotoxicity profile in 3D spheroids, as previously described. IC50 values were calculated using a 4-PL model.

[6] = tested on: six different cancer cell lines; assay: MTT cytotoxicity, average over the cancer cell line panel; format: cell-based, human; conditions: 2D assays, average over the cancer cell lines of Table 1
Method: as §1
Due to note, all the complexes were very effective in the MDA-MB-231 cell line, which overexpress the SMVT (sodium-dependent multivitamin transporter) receptor, which is well known to be involved in the intracellular translocation of biotin [24].
as §4

MDA-MB-231 cells [7] = conditions: 24 h, 2 and 3 μM
Method: The ability to enter cancer cells is a very important factor to determine the biological activity of metal-based compounds. Consequently, with the aim of correlating the antiproliferative activity elicited by all the newly developed complexes and their accumulation profiles into cancer cells, the Cu content was evaluated in the SMVT overexpressing MDA-MB-231 cells. Uptake profiles were determined by treating cancer cells for 24 h with two concentrations (2 and 3 μM) of tested complexes.
MDA-MB-231 cells (2.5 × 10^6) were seeded in 75 cm^2 flasks in a growth medium (20 mL). Following 24 h, cells were treated for 24 h with tested complexes and samples processed as previously described.
Figure 2 Cellular uptake of complexes 1–4 in drug-treated MDA-MB-231 human breast cancer cells. Cells were incubated for 24 h with […] of tested complexes. The amount of cellular Cu was estimated by GF-AAS. Error bars are S.D.

MDA-MB-231 cells [8] = conditions: 24 h, IC50 concentrations
Method: Transmission electron microscopy (TEM) studies were also performed to assess the eventual modification of cellular/subcellular morphological features induced by the tested complexes. Figure 5 reports the TEM images of the breast carcinoma cells MDA-MB-231 treated for 24 h with IC50 concentrations of cisplatin or compounds 2 and 4.
About 10^6 MDA-MB-231 cells were seeded in 24-well plates and, following overnight incubation, were treated with the tested compounds for 24 h. Then, cells were processed as previously described. Pictures were captured with a Hitachi H-600 electron microscope (Hitachi, Tokyo, Japan) operating at 75 kV. All photos were analyzed by using Corel Draw 11.
Figure 5 TEM analysis of MDA-MB-231 human breast cancer cells: (a,b) control cells; (c–e) cells treated for 24 h with IC50 concentrations of 2; (f–h) cells treated for 24 h with IC50 concentrations of 4.

MDA-MB-231 cells [9] = conditions: 3 μM, 24 and 48 h

SMILES | IC50 [1] | IC50 [2] | IC50 [3] | R.F. (resistance factor) [4] | IC50 [4] | IC50 [5] | times more effective than cisplatin in 3D spheroids [5] | IC50 [6] | Cu intracellular content (uptake) (MDA-MB-231 cells [7]) | cell morphology by TEM (MDA-MB-231 cells [8]) | apoptosis induction (Hoechst staining) (MDA-MB-231 cells [9])
O=C(CCCC[C@@H]1SC[C@@H]2NC(=O)N[C@@H]21)NN=C1C(=O)c2ccc[n+]3c2-c2c1ccc[n+]2[Cu-2]31[n+]2cccc3ccc4ccc[n+]1c4c32.O=[N+]([O-])[O-].O=[N+]([O-])[O-] [Complex 4, [Cu(phen)(phendione-biotin)](NO3)2] | 300 ± 30 nM | 600 ± 100 nM | 2000 ± 600 nM | 1.9 | 1100 ± 300 nM | 6900 ± 1300 nM | eight | 800 nM | most internalised into cancer cells | substantial enhancement of the mitochondrial dimensions (swelling) and a partial disruption of the cristae structures | morphological features typical of cells undergoing apoptosis
O=C(CCCC[C@@H]1SC[C@@H]2NC(=O)N[C@@H]21)NN=C1C(=O)c2ccc[n+]3c2-c2c1ccc[n+]2[Cu-2]3([Cl])[Cl] [Complex 2, [Cu(phendione-biotin)Cl2]] | 1200 ± 500 nM | 1400 ± 100 nM | 3800 ± 500 nM | 1.0 | 1100 ± 400 nM | 1300 ± 500 nM | about forty | – | – | substantial enhancement of the mitochondrial dimensions (swelling) and a partial disruption of the cristae structures | –
